Experimental data taken from US20230386615A1, “BINDING SITE IN TYPE 1 RYANODINE RECEPTOR” (The Trustees of Columbia University in the City of New York, priority 2021, published 2023).
One block for each compound: values may come before it.

Legend:
RyR1-WT [1] = biological target: T1, RyR1-WT (Oryctolagus cuniculus, UniProt P11716); format: binding, rabbit
T1 construct: Each fragment was subcloned into a full length RyR1 construct in pcDNA3.1 vector; expressed in transfected cells; host or cells: HEK293 (also 293T/17) cells, pcDNA3.1

RyR1 [2] = biological target: T2, RyR1 (Oryctolagus cuniculus, UniProt P11716); assay: S107 binding in the presence of increasing concentrations of ATP or ADP; design: species or system rabbit
T2 construct: from tissue; host or cells: rabbit skeletal muscle sarcoplasmic reticulum microsomes

RyR1-W996A [3] = biological target: T3, RyR1-W996A (Oryctolagus cuniculus, UniProt P11716, W996A); format: binding, rabbit
T3 construct: Each fragment was subcloned into a full length RyR1 construct in pcDNA3.1 vector; expressed in transfected cells; host or cells: HEK293 (also 293T/17) cells, pcDNA3.1

[4] = system: HEK293 cells expressing mutant RyR1; assay: Ca2+ imaging, caffeine-induced Ca2+ release; format: cell-based, rabbit; details: both mutants, 1 mM H2O2, 10 mM caffeine
RyR1-W882A [5] = biological target: T4, RyR1-W882A (Oryctolagus cuniculus, UniProt P11716, W882A); details: radiolabeled ATP
RyR1-WT [6] = biological target: T1, RyR1-WT; assay: 3H-S107 binding, recombinant RyR1 HEK293 microsomes treated with PKA and H2O2; design: species or system rabbit
RyR1 [7] = biological target: T2, RyR1; assay: 3H-S107 radioligand binding, skeletal SR microsomes untreated or treated with PKA and H2O2; design: species or system rabbit
Procedure: For PKA-phosphorylated channel experiments, […] of microsomes were in vitro phosphorylated with 40 units of PKA catalytic subunit (SigmaAldrich, Cat #P2645) for 30 min at 30° C. in the presence of the following buffer: 50 mM Tris/PIPES pH 7.0, 8 mM MgCl2, 1 mM MgATP, and 1 mM EGTA. The samples were then spun by centrifuge for 10 min at 100,000×g. The resulting pellets were washed four times with wash buffer (300 mM sucrose, 10 mM imidazole, pH 7.4) and aliquots were frozen in liquid nitrogen and stored at −80° C. Oxidation of RyR1 was induced by incubating microsomes with 1 mM H2O2 for 30 min at room temperature prior to washing.
Titrative ^3H-S107 binding, performed in the absence and presence of 10 mM NaATP, was initiated by addition of ^3H-S107 (10-10,000 nM final concentration) to 0.1 mg skeletal sarcoplasmic reticulum (SR) microsomes in binding buffer (50 mM Tris-HCl, pH 7.5, 150 mM NaCl, 25 mM MgCl2). […] All samples were incubated at room temperature for 30 min ^3H-S107 binding was stopped by addition of ice-cold binding buffer prior to filtration through GF/B Whatman filters pre-equilibrated with 0.015% PE. Filters were washed 3 times with 5 mL of wash buffer (10 mM MOPS, 200 mM NaCl, pH 7.4), dried, and counted. Data were normalized to ^3H-ryanodine binding. […].

purified RyR1 = biological target: T5, purified RyR1 (Oryctolagus cuniculus, UniProt P11716); assay: 3H-S107 binding to purified RyR1 in absence and presence of 10 mM ATP; design: species or system rabbit
T5 construct: RyR1 was purified from rabbit skeletal muscle; from tissue

RyR1-W882A [8] = biological target: T4, RyR1-W882A; assay: 3H-S107 binding, recombinant RyR1 HEK293 microsomes treated with PKA and H2O2; design: Each fragment was subcloned into a full length RyR1 construct in pcDNA3.1 vector; expressed in transfected cells; host or cells: HEK293 (also 293T/17) cells, pcDNA3.1; species or system rabbit; details: W882A mutation
RyR1-W996A [9] = biological target: T3, RyR1-W996A; assay: as above; design: species or system rabbit
[10] = first section of TABLE 5, 10 mM ATP added
[11] = third section of TABLE 5, ADP in place of ATP

stoichiometry (RyR1-WT [1]): 12 molecules per channel
competition with S107 binding (RyR1 [2]): significant inhibitory effect
ADP binding stoichiometry, in words (RyR1-W996A [3]; RyR1-W996A): greater than one molecule per channel
SMILES: Nc1ncnc2c1ncn2[C@@H]1O[C@H](COP(=O)(O)OP(=O)(O)O)[C@@H](O)[C@H]1O [ADP, adenosine diphosphate]

SMILES: COc1ccc2c(c1)CN(Cc1ccc(C(=O)O)cc1)CCS2 [Compound 1, 4-[(7-methoxy-2,3-dihydro-1,4-benzothiazepin-4(5H)-yl)methyl]benzoic acid]
caffeine-induced calcium release after oxidation [4]: unaffected

SMILES: Nc1ncnc2c1ncn2[C@@H]1O[C@H](COP(=O)(O)OP(=O)(O)OP(=O)(O)O)[C@@H](O)[C@H]1O [ATP, adenosine triphosphate]
ATP binding, in words (RyR1-W996A [3]; W996A mutant): significantly reduced
ATP binding, in words (RyR1-W882A [5]): maintained, although slightly reduced

SMILES: COc1ccc2c(c1)CN(C)CCS2 [Compound S107]
Bmax (RyR1-WT [6]; [10]): 3.5 ± 0.3 mol S107/mol RyR1
Kd (RyR1-WT [6]; [10]): 200 ± 11 nM
Bmax (RyR1-WT [6]; [11]): 3.6 ± 0.3 mol S107/mol RyR1
Kd (RyR1-WT [6]; [11]): 188 ± 12 nM
Bmax (RyR1 [7]; PKA/H2O2 treated microsomes): 3.7 ± 0.2 mol S107/mol RyR1
Kd (RyR1 [7]; PKA/H2O2 treated microsomes): 155 ± 9 nM
Bmax (RyR1 [7]; Untreated microsomes): 0.4 ± 0.1 mol S107/mol RyR1
Kd (RyR1 [7]; Untreated microsomes): 150 ± 7 nM
Bmax (purified RyR1; 10 mM ATP): 3.0 ± 0.2 mol S107/mol RyR1
Kd (purified RyR1; 10 mM ATP): 152 ± 7 nM
Bmax (purified RyR1; No ATP): 0.4 ± 1.0 mol S107/mol RyR1
Kd (purified RyR1; No ATP): 147 ± 6 nM
3H-S107 binding to the channel, in words (RyR1-W882A [8]): abolished
Kd (RyR1-W996A [9]): 250 ± 10 nM
Bmax (RyR1-W996A [9]; RyR1-W996A, third section of TABLE 5, ADP in place of ATP): 2.0 ± 0.2 mol S107/mol RyR1
